Calls of active or inactive are those of the source. The calls are words filed in the database; no cut-off is given here.
What was measured:
Staphylococcus aureus [1] = experiment: Antibacterial activity against Staphylococcus aureus RN4220 assessed as inhibition of microbial growth; type: functional
Staphylococcus aureus [2] = experiment: Antibacterial activity against Staphylococcus aureus SA1199B assessed as inhibition of microbial growth; type: functional
Staphylococcus aureus [3] = experiment: Antibacterial activity against fluoroquinolone-resistant Staphylococcus aureus SA1199B assessed as inhibition of microbial growth; type: functional
MHCC97H = experiment: Cytotoxicity against human MHCC97H cells assessed as inhibition of cell growth incubated for 24 hrs by MTT assay; type: functional, cell-based
HepG2 = experiment: Cytotoxicity against human HepG2 cells assessed as inhibition of cell growth incubated for 24 hrs by MTT assay; type: functional, cell-based; details: HepG2, 24 h
[4] = Cytotoxicity against human LM3 cells assessed as inhibition of cell growth incubated for 24 hrs by MTT assay; type: functional, cell-based; details: LM3, 24 h
Staphylococcus aureus [5] = experiment: Synergistic antibacterial activity against Staphylococcus aureus SA1199B assessed as norfloxacin MIC; type: functional
[6] = Cytotoxicity against HEK293T cells assessed as inhibition of cell growth incubated for 24 hrs by MTT assay; type: toxicity, cell-based, HEK-293T; details: human
Staphylococcus aureus [7] = experiment: Synergistic antibacterial activity against Staphylococcus aureus SA1199B assessed as fractional inhibitory concentration index in presence of norfloxacin; type: functional
Staphylococcus aureus [8] = experiment: Potency index, ratio of test compound MIC to norfloxacin MIC for antibacterial activity against fluoroquinolone-resistant Staphylococcus aureus SA1199B assessed as inhibition of microbial growth; type: functional
Staphylococcus aureus [9] = experiment: Synergistic antibacterial activity against Staphylococcus aureus SA1199B assessed as inhibition of microbial growth in presence of norfloxacin; type: functional
Staphylococcus aureus [10] = experiment: Antibacterial activity against Staphylococcus aureus XU212 assessed as inhibition of microbial growth; type: functional
Staphylococcus aureus [11] = experiment: Additive antibacterial activity against Staphylococcus aureus XU212 assessed as fractional inhibitory concentration index in presence of tetracycline; type: functional
Staphylococcus aureus [12] = experiment: Synergistic antibacterial activity against Staphylococcus aureus XU212 assessed as tetracyclin MIC; type: functional
Staphylococcus aureus [13] = experiment: Synergistic antibacterial activity against Staphylococcus aureus […] assessed as streptomycin MIC; type: functional
Staphylococcus aureus [14] = experiment: Synergistic antibacterial activity against Staphylococcus aureus XU212 assessed as inhibition of microbial growth in presence of tetracycline; type: functional
[15] = target: T1, Quinolone resistance protein NorA (Staphylococcus aureus) (UniProt P0A0J7); experiment: Inhibition of NorA efflux pump in norfloxacin-resisitant Staphylococcus aureus SA1199B overexpressing NorA gene assessed as reduction in EtBr efflux inhibition at 25 uM incubated for 20 mins by fluorometric assay
T1 sequence (whole entry): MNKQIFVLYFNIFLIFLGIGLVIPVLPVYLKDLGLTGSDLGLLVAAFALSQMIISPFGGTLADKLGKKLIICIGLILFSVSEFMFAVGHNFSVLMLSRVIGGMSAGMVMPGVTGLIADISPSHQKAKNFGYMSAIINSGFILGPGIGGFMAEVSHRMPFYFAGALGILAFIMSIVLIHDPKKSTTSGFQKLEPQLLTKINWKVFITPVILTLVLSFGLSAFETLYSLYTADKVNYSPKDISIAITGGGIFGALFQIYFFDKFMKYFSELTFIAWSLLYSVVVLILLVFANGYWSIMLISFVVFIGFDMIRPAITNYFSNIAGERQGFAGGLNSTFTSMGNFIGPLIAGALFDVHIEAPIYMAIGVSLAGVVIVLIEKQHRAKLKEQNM

Staphylococcus aureus [16] = experiment: Synergistic antibacterial activity against Staphylococcus aureus RN4220 assessed as fractional inhibitory concentration index in presence of streptomycin; type: functional
Staphylococcus aureus [17] = experiment: Synergistic antibacterial activity against Staphylococcus aureus RN4220 assessed as inhibition of microbial growth in presence of streptomycin; type: functional
SW-620 = experiment: Cytotoxicity against human SW620 cells assessed as inhibition of cell growth incubated for 24 hrs by MTT assay; type: functional, cell-based; details: SW-620, 24 h
LS-513 = experiment: Cytotoxicity against human LS-513 cells assessed as inhibition of cell growth incubated for 24 hrs by MTT assay; type: functional, cell-based; details: LS-513, 24 h
COLO 205 = experiment: Cytotoxicity against human COLO 205 cells assessed as inhibition of cell growth incubated for 24 hrs by MTT assay; type: functional, cell-based; details: COLO 205, 24 h
Staphylococcus aureus [18] = experiment: Additive antibacterial activity against Staphylococcus aureus RN4220 assessed as fractional inhibitory concentration index in presence of streptomycin; type: functional

`CN[C@@H]1[C@H](O[C@H]2[C@H](O[C@H]3[C@H](O)[C@@H](O)[C@H](N=C(N)N)[C@@H](O)[C@@H]3N=C(N)N)O[C@@H](C)[C@]2(O)C=O)O[C@@H](CO)[C@H](O)[C@H]1O` [STREPTOMYCIN] showed an MIC (Staphylococcus aureus [1]) of 32 µg/mL.
With `O=C1C=CC[C@@H]([C@@H](O)[C@H](Oc2c(O)cc3c(c2O)C(=O)C[C@@H](c2ccccc2)O3)c2ccccc2)O1` the MIC (Staphylococcus aureus [2]) was > 128 µg/mL, the MIC (Staphylococcus aureus [3]) was 16 µg/mL and the IC50 (MHCC97H) was 41 µM. It also gave an IC50 (HepG2) of 66 µM, an IC50 [4] of 21 µM and an MIC (Staphylococcus aureus [5]) of 16 µg/mL. For the same compound, the IC50 at 24 h [6] was > 100 µM, the “fractional inhibitory concentration index (FICI)” value (Staphylococcus aureus [7]) was 0.18 and the Ratio (Staphylococcus aureus [8]) was 8. It also gave an MIC (Staphylococcus aureus [9]) of 16 µg/mL.
In the case of `O=C1C=CC[C@@H]([C@@H](O)[C@@H](c2ccccc2)c2c(O)cc3c(c2O)C(=O)C[C@@H](c2ccccc2)O3)O1`, the MIC (Staphylococcus aureus [2]) is reported as > 512 µg/mL, the MIC (Staphylococcus aureus [3]) is reported as 16 µg/mL and the IC50 (MHCC97H) is reported as 63 µM. For the same compound, the MIC (Staphylococcus aureus [10]) was > 512 µg/mL, the “fractional inhibitory concentration index (FICI)” value (Staphylococcus aureus [11]) was 0.62 and the MIC (Staphylococcus aureus [12]) was 128 µg/mL. The MIC (Staphylococcus aureus [13]) was 8 µg/mL, the IC50 (HepG2) was 63 µM and the IC50 [4] was 30 µM. For the same compound, the MIC (Staphylococcus aureus [14]) was 64 µg/mL, the MIC (Staphylococcus aureus [1]) was 64 µg/mL and the MIC (Staphylococcus aureus [5]) was 16 µg/mL. For the same compound, the inhibition [15] was “Active”, the IC50 at 24 h [6] was 90 µM and the “fractional inhibitory concentration index (FICI)” value (Staphylococcus aureus [16]) was 0.37. The “fractional inhibitory concentration index (FICI)” value (Staphylococcus aureus [7]) was 0.14, the MIC (Staphylococcus aureus [17]) was 8 µg/mL and the Ratio (Staphylococcus aureus [8]) was 8. It also gave an MIC (Staphylococcus aureus [9]) of 8 µg/mL.
With `O=c1[nH]cc(F)c(=O)[nH]1` [FLUOROURACIL] the IC50 (SW-620) was 43 µM, the IC50 (LS-513) was 84000 nM and the IC50 (COLO 205) was 32 µM.
`CN(C)[C@@H]1C(O)=C(C(N)=O)C(=O)[C@@]2(O)C(O)=C3C(=O)c4c(O)cccc4[C@@](C)(O)[C@H]3C[C@@H]12` [TETRACYCLINE] gave an MIC (Staphylococcus aureus [10]) of 128 µg/mL.
In the case of `O=C1C=CC[C@H]([C@@H](O)[C@@H](c2ccccc2)c2c(O)cc(O)c3c2O[C@H](c2ccccc2)CC3=O)O1`, the MIC (Staphylococcus aureus [2]) is reported as > 512 µg/mL, the IC50 (MHCC97H) is reported as > 100 µM and the IC50 (HepG2) is reported as 82 µM. The IC50 [4] was 82 µM, the MIC (Staphylococcus aureus [5]) was 32 µg/mL and the IC50 at 24 h [6] was > 100 µM. The “fractional inhibitory concentration index (FICI)” value (Staphylococcus aureus [7]) was 0.37 and the MIC (Staphylococcus aureus [9]) was 64 µg/mL.
In the case of `O=C1C=CC[C@H]([C@@H](O)[C@H](c2ccccc2)c2c(O)cc(O)c3c2O[C@H](c2ccccc2)CC3=O)O1`, the MIC (Staphylococcus aureus [2]) is reported as 128 µg/mL, the IC50 (MHCC97H) is reported as > 100 µM and the IC50 (HepG2) is reported as > 100 µM. The IC50 [4] was > 100 µM, the MIC (Staphylococcus aureus [5]) was 32 µg/mL and the inhibition [15] was “Active”. The IC50 at 24 h [6] was > 100 µM, the “fractional inhibitory concentration index (FICI)” value (Staphylococcus aureus [7]) was 0.37 and the Ratio (Staphylococcus aureus [8]) was 4. It also gave an MIC (Staphylococcus aureus [9]) of 16 µg/mL.
For `O=C1C=CC[C@H]([C@@H](O)[C@H](c2ccccc2)c2c(O)cc3c(c2O)C(=O)C[C@@H](c2ccccc2)O3)O1`, the IC50 (SW-620) was 2.6 µM, the MIC (Staphylococcus aureus [2]) was > 512 µg/mL and the IC50 (MHCC97H) was > 100 µM. The IC50 (LS-513) was 1600 nM, the MIC (Staphylococcus aureus [10]) was > 512 µg/mL and the “fractional inhibitory concentration index (FICI)” value (Staphylococcus aureus [11]) was 0.62. The MIC (Staphylococcus aureus [12]) was 64 µg/mL, the MIC (Staphylococcus aureus [13]) was 8 µg/mL and the IC50 (HepG2) was > 100 µM. For the same compound, the IC50 [4] was 33 µM, the MIC (Staphylococcus aureus [14]) was 64 µg/mL and the MIC (Staphylococcus aureus [1]) was 64 µg/mL. For the same compound, the IC50 (COLO 205) was 2.8 µM, the MIC (Staphylococcus aureus [5]) was 32 µg/mL and the inhibition [15] was “Active”. The IC50 at 24 h [6] was > 100 µM, the “fractional inhibitory concentration index (FICI)” value (Staphylococcus aureus [16]) was 0.37 and the “fractional inhibitory concentration index (FICI)” value (Staphylococcus aureus [7]) was 0.28. It also gave an MIC (Staphylococcus aureus [17]) of 16 µg/mL, a Ratio (Staphylococcus aureus [8]) of 4 and an MIC (Staphylococcus aureus [9]) of 16 µg/mL.
In the case of `CNC(=O)c1cc(Oc2ccc(NC(=O)Nc3ccc(Cl)c(C(F)(F)F)c3)cc2)ccn1` [SORAFENIB], the IC50 (MHCC97H) is reported as 15 µM, the IC50 (HepG2) is reported as 14 µM and the IC50 [4] is reported as 9.2 µM.
In the case of `O=C1C=CC[C@H]([C@@H](O)[C@H](Oc2c(O)cc3c(c2O)C(=O)C[C@@H](c2ccccc2)O3)c2ccccc2)O1`, the MIC (Staphylococcus aureus [2]) is reported as > 128 µg/mL, the MIC (Staphylococcus aureus [3]) is reported as 16 µg/mL and the IC50 (MHCC97H) is reported as > 100 µM. The IC50 (HepG2) was > 100 µM, the IC50 [4] was > 100 µM and the MIC (Staphylococcus aureus [5]) was 16 µg/mL. The IC50 at 24 h [6] was > 100 µM, the “fractional inhibitory concentration index (FICI)” value (Staphylococcus aureus [7]) was 0.25 and the Ratio (Staphylococcus aureus [8]) was 8. The MIC (Staphylococcus aureus [9]) was 32 µg/mL.
With `O=C1C=CC[C@@H]([C@H](O)[C@@H](c2ccccc2)c2c(O)cc(O)c3c2O[C@H](c2ccccc2)CC3=O)O1` the IC50 (SW-620) was 3.9 µM, the MIC (Staphylococcus aureus [2]) was 256 µg/mL and the IC50 (MHCC97H) was > 100 µM. The IC50 (LS-513) was 2400 nM, the MIC (Staphylococcus aureus [10]) was 512 µg/mL and the “fractional inhibitory concentration index (FICI)” value (Staphylococcus aureus [11]) was 0.62. The MIC (Staphylococcus aureus [12]) was 64 µg/mL, the MIC (Staphylococcus aureus [13]) was 16 µg/mL and the IC50 (HepG2) was > 100 µM. The IC50 [4] was > 100 µM, the MIC (Staphylococcus aureus [14]) was 64 µg/mL and the MIC (Staphylococcus aureus [1]) was 64 µg/mL. The IC50 (COLO 205) was 12 µM, the MIC (Staphylococcus aureus [5]) was 32 µg/mL and the inhibition [15] was “Active”. For the same compound, the IC50 at 24 h [6] was > 100 µM, the “fractional inhibitory concentration index (FICI)” value (Staphylococcus aureus [7]) was 0.31 and the MIC (Staphylococcus aureus [17]) was 16 µg/mL. For the same compound, the “fractional inhibitory concentration index (FICI)” value (Staphylococcus aureus [18]) was 0.5, the Ratio (Staphylococcus aureus [8]) was 4 and the MIC (Staphylococcus aureus [9]) was 16 µg/mL.
For `N#CC(C#N)=NNc1cccc(Cl)c1`, the inhibition [15] was “Active”.
In the case of `O=C1C=CC[C@H]([C@H](O)[C@H](c2ccccc2)c2c(O)cc3c(c2O)C(=O)C[C@@H](c2ccccc2)O3)O1`, the IC50 (MHCC97H) is reported as > 100 µM, the IC50 (HepG2) is reported as > 100 µM and the IC50 [4] is reported as > 100 µM. The IC50 at 24 h [6] was > 100 µM.
With `CCn1cc(C(=O)O)c(=O)c2cc(F)c(N3CCNCC3)cc21` [NORFLOXACIN] the MIC (Staphylococcus aureus [2]) was 128 µg/mL.
